Marks after values point to notes of the source that are not given here.
Columns and labels:
[1] = test system: southern corn rootworm (SCR) adults; test: Sticky trap attraction in sweet corn plots (Example 1); format: in vivo, Diabrotica undecimpunctata howardi; details: for Mean number of SCR per trap (±standard deviation): n = 4
Description: (§1) The attraction of Diabrotica species to single-component and multicomponent lures was evaluated in corn fields. The field experiments on attraction of SCR and WCR adults were conducted in 0.405-ha (1-acre) plots of “Illini Xtra Sweet” corn grown on the University of Illinois South Farms at Urbana, Ill., over a two year period. Most of the tests were conducted in August to correspond with the peak silk-feeding and oviposition periods of corn rootworm adults in central Illinois. In both years, the sweet corn plot was adjacent to a 0.405-ha trap crop of C. maxima cultivar “Blue Hubbard”, to provide high densitites of SCR and WCR adults in the corn plots (Howe, et al., Environ. Entomol., 5:745-751 (1976), Lampman, et al., J. Chem. Ecol., 13:959-975 (1987).
(§2) Attraction of Diabrotica species to volatile compounds was measured by the average number of beetles cought during a 24-h period on 1.0-liter cylindrical paper cartons (15.2 cm high, 27.9 cm circumference) which were evenly coated with clear insect adhesive, TangleTrap™ (Tanglefood Co., Grand Rapids, Mich.) The candidate attractants were applied by capillary micropiettes to cotton dental wicks (13 mm long by 6 mm diameter) that were previously impregnated with mineral oil to prolong volatilization. The chemicals were purchased from Aldrich Chemical Co., (Milwaukee, Wis.) and assayed by gas chromatography as >97% pure. Indole, a solid at ambient temperatures (m.p. 52-54° C.), was dissolved in glass-distilled acetone before dosing the cotton wicks. For dosage-acticity tests, the various components were mixed in equal quantities by weight and diluted to the appropriate dosage with acetone. Treated and untreated (control) wicks were attached to the top of the paper cartons with TangleTrap™ and the inverted traps were placed on 1-m-high posts between the sweet corn rows. Four replicates of each treatment and a control were conducted in a randomized complete block desgin. The sticky traps within a block (ca. 50-m row of corn) were 5-10 m apart (depending on the number of treatments in a particular test) and the blocks were 3 m apart. The traps were baited and placed in the field between 1000 and 1300 hours and beetle counts were taken after 24 h. The significance of treatments was determined by analysis of variance and the individual means were separated by Duncan's multiple range test (Statistical Package for Social Sciences (SPSS) (Nie, et al., SPSS: statistical package for the social sciences, 2nd ed. McGraw-Hill, N.Y. (1975)). Student's t test was used for comparisons of two means (Sokal, et al., Biometry, Freeman, San Francisco (1969). Significance levels were set at P=0.05 at all statistical analyses.
(§3) The initial field test in August of the first year evaluated the response of SCR and WCR adults of a mixture of veratrole (V), indole (I), phenylacetaldehyde (P), trans-anethole (A), and eugenol (E) (=VIPAE mixture), as well as to the individual components. Each component in the VIPAE mixture was present at a dosage of 20 mg per trap and was compared with the individual components at 100 mg per trap. The response of SCR and WCR adults to a range of VIPAE doses, 1-300 mg, was conducted on the following day. Fifty SCR adults were removed from each 100-mg VIPAE trap, and returned to the laboratory for sex determination. Additional analyses in August evaluated the reduction in trap catches produced by the sequential removal of the individual components from the VIPAE lure. After the primary components of the initial lure were determined, a modified multicomponent lure consisting of veratrole, indole, and phenylacetaldehyde (=VIP mixture) was compared with its individual components to determine whether the attraction of SCR adults was the result of interactive or additive factors. The attraction and synergistic response of SCR adults of the VIP mixture was verified by tests conducted in August of the following year. […]

[2] = test system: western corn rootworm (WCR) adults; test: as above; format: in vivo, Diabrotica virgifera virgifera; details: for Mean number of WCR per trap (±standard deviation): n = 4
Description: as §1, §2, §3

[3] = test system: NCR; test: Limit of response rating of squash blossom volatiles on sticky traps (Example 5); format: in vivo, Diabrotica barberi; details: 24 hour; four replicate traps; 0.01 mg to 200 mg
Description: (§4) Over 40 individual volatile chemicals have been isolated from Cucurbita maxima blossoms and circa 25 of these have been unequivocally identified (Andersen, J. F., J. Agric. Food Chem., 35:60-62 (1987): Andersen, J. F. and Metcalf, R. L., J. Chem. Ecol., 12:687-699 (1986)). The major odor components were evaluated as potential attractants for adult Diabrotica species using cylindrical sticky traps baited with dental cotton wicks (Metcalf, R. L., and Lampman, R. L., Paper submitted to J. Econ. Entomol., (1988)) containing from 0.01 mg to 200 mg of volatile compound.

[4] = test system: SCR; test: as above; format: in vivo, Diabrotica undecimpunctata howardi; details: 24 hour; four replicate traps; 0.01 mg to 200 mg
Description: as §4

[5] = test system: WCR; test: as above; format: in vivo, Diabrotica virgifera virgifera; details: 24 hour; four replicate traps; 0.01 mg to 200 mg
Description: as §4

[6] = test system: western corn rootworm (WCR) adults; test: Sticky trap attraction in corn, estragole analogues (Example 3); format: in vivo, Diabrotica virgifera virgifera; details: 100 mg per trap, n = 4; for Mean number of WCR per sticky trap after 24 hours: August 5 (Table 10)
Description: (§5) Test chemicals were applied by capillary micropipettes to cotton dental wicks that were attached to tops of 1.0 liter cylindrical paper cartons covered with TangleTrap™, Grand Rapids, Mich. The trapping techniques used were as previously described in Example 1. Cinnamyl alcohol, 4-methoxycinnamaldehyde, cinnamyl acetate, and 4-(4′methoxyphenyl)-3-butene-2-one which are solids at ambient temperature were prepared as standard w/v solutions in acetone prior to dosing the cotton wicks. All treatments were made at a dosage of 100 mg or 100 μL of attractant per trap. Control traps had untreated wicks. Four replicates of treated and untreated traps were positioned randomly 10 meters apart on top of 1 m high posts along the edges of 25-50 ha. fields of hybrid corn (Zea mays), infested with adult NCR, SCR, and WCR beetles. Several experiments detailed in the Tables were made in a 0.4 ha plot of sweet corn (Illini X-tra Sweet).
(§6) Attraction of Diabrotica species adults of the sticky traps was measured by the mean number of beetles caught after 1 day (ca. 24 hours) exposure. The significance of the treatments was determined by analysis of variance and the individual means were separated by Duncan's multiple range test (Statistical Package for the Social Sciences, Nie, et al., 2nd. ed. McGraw-Hill, New York (1975). The data was logarithmically transformed for statistical analysis. Means and standard deviations are presented for the untransformed data. Significance levels were set at P=0.05 for all statistical analyses.

[7] = test system: southern corn rootworm (SCR) adults; test: as above; format: in vivo, Diabrotica undecimpunctata howardi; details: 100 mg per trap, n = 4; for Mean number of SCR per sticky trap after 24 hours: August 5 (Table 10)
Description: as §5, §6

[8] = test system: northern corn rootworm (NCR) adults; test: as above; format: in vivo, Diabrotica barberi; details: August 5 (Table 10); 100 mg per trap; n = 4
Description: as §5, §6

[9] = test system: D. barberi; test: Sticky trap attraction in prairie habitat, Trelease Woods (Example 2); format: in vivo, Diabrotica barberi; details: August 14, 1987; 100 mg per trap; n = 4
Description: (§7) The candidate lures in all experiments were purchased commercially and exceeded 98% purity. The test chemicals were applied by capillary micropipettes to cotton dental wicks which were attached to the tops of 1.0 liter cylindrical paper cartons covered with TangleTrap™ (Tanglefoot Co., Grand Rapids, Mich.). The sticky trap techniques used were as described in Example 1. Cinnamyl alcohol and para-methoxycinnamaldehyde, which are solids, were dissolved in glass-distilled acetone prior to dosing the cotton wicks. […]. Control traps had untreated cotton wicks. Four replicates of treated and untreated traps were randomly positioned 10 meters apart on top of 1 m high posts along the border of a eight foot wide strip cut through the middle of a 4.05 ha relict prairie at Trelease Woods (ca. two miles northeast of Urbana, Ill.). The field consisted primarily of Andropogon gerardii Vitman (big bluestem) and a variety of composites. The tests were conducted in mid-August of two years and were timed to coincide with the presence of D. cristata and D. barberi adults in the flower heads of Canada thistle (Carduus arvensis Robson). In the second year, several new attractants of D. v. virgifera and D. barberi were tested in Trelease Woods and along the edge of a 0.8 ha field of hybrid corn located at the Pomology South Farms, Urbana, Ill. Attraction of Diabrotica species to the various lures was measured by the mean number of beetles caught after 24-h. On one date in late August of the first year, D. cristata and D. barberi were removed from the traps and sexed in the laboratory. The significance of treatments in all tests was determined by an analysis of variance and the individual means were separated by Duncan's multiple range test (Statistical Package for Social Science, Nie, et al., SPSS: statistical package for the social sciences, 2nd ed. McGraw-Hill, New York (1975). Data were logarithmically transformed for statistical analysis and the means and standard deviations are presented for the untransformed data.

[10] = test system: D. cristata; test: as above; format: in vivo, Diabrotica cristata; details: August 14, 1987; 100 mg per trap; n = 4
Description: as §7

[11] = test system: D. v. virgifera; test: as above; format: in vivo, Diabrotica virgifera virgifera; details: August 14, 1987; 100 mg per trap; n = 4
Description: as §7

[12] = test system: D. u. howardi; test: as above; format: in vivo, Diabrotica undecimpunctata howardi; details: August 14, 1987; 100 mg per trap; n = 4
Description: as §7

[13] = August 4, second year, each compound 20 mg per trap
[14] = August 7, second year, each compound 20 mg per trap
[15] = August first year, South Farms, 24 h, single compounds 100 mg per trap, mixture 20 mg of each component
[16] = August first year, single compounds 100 mg per trap, mixture 20 mg each component

SMILES	Attractant Rating NCR (by limit of response) [3]	Attractant Rating SCR (by limit of response) [4]	Attractant Rating WCR (by limit of response) [5]	Mean number of WCR per sticky trap after 24 hours [6]	Mean number of SCR per sticky trap after 24 hours [7]	Mean number of NCR per sticky trap after 24 hours [8]	further results
O=CCc1ccccc1 [Phenylacetaldehyde]	0 (200)	+2 (10-30)	0 (200)	–	–	–	relative percent activity (SCR) as compared with the highest mean value for the test date [1, 13]: 8%; Mean number of SCR per trap (±standard deviation) [1, 13]: 3.0 ± 1.2 per trap; relative percent activity (SCR) as compared with the highest mean value for the test date [1, 14]: 12%; Mean number of SCR per trap (±standard deviation) [1, 14]: 5.3 ± 3.2 per trap; Mean number of SCR per trap (±standard deviation) [1, 15]: 2.5 ± 1.9 per trap; relative percent activity of the mean SCR trap catch as compared with the highest mean value in the column [1, 16]: 12%; relative percent activity (WCR) as compared with the highest mean value for the test date [2, 13]: 35%; Mean number of WCR per trap (±standard deviation) [2, 13]: 17.8 ± 7.9 per trap; relative percent activity (WCR) as compared with the highest mean value for the test date [2, 14]: 42%; Mean number of WCR per trap (±standard deviation) [2, 14]: 13.3 ± 8.1 per trap; Mean number of WCR per trap (±standard deviation) [2, 15]: 1.8 ± 1.3 per trap; relative percent activity of the mean WCR trap catch as compared with the highest mean value in the column [2, 16]: 26%
N#CC=Cc1ccccc1 [X, cinnamonitrile]	–	–	–	37.8 ± 7.8^cd per sticky trap	47.5 ± 15.4^cd per sticky trap	0.3 ± 0.5^a per sticky trap	Mean number of WCR adults per sticky trap (±standard deviation) after 24 hours ([6]; August 4 second year): 32.7 ± 11.4^bc per sticky trap; Mean number of WCR adults per sticky trap (±standard deviation) after 24 hours ([6]; August 5 first year): 1.5 ± 6.6^ab per sticky trap; Mean number of SCR adults per sticky trap (±standard deviation) after 24 hours ([7]; August 4 second year): 59.5 ± 49.0^c per sticky trap; Mean number of SCR adults per sticky trap (±standard deviation) after 24 hours ([7]; August 5 first year): 156.0 ± 37.2^c per sticky trap
CC(=O)OCC=Cc1ccccc1 [XIX, cinnamyl acetate]	–	–	–	24.0 ± 1.07^b per sticky trap	6.0 ± 1.5^a per sticky trap	5.7 ± 2.9^b per sticky trap	–
COC(=O)C=Cc1ccccc1 [XV, cinnamic acid methyl ester]	–	–	–	9.5 ± 4.5^a per sticky trap	2.0 ± 0.8^a per sticky trap	0.5 ± 0.6^a per sticky trap	Mean number of WCR adults per sticky trap (±standard deviation) after 24 hours ([6]; September 11): 1.7 ± 1.7^a per sticky trap; Mean number of SCR adults per sticky trap (±standard deviation) after 24 hours ([7]; September 11): 3.2 ± 1.7^ab per sticky trap
O=C(O)C=Cc1ccccc1 [XX, cinnamic acid]	–	–	–	12.7 ± 4.9^a per sticky trap	1.7 ± 0.5^a per sticky trap	1.7 ± 1.0^a per sticky trap	–
CCC/C=C/C=O [trans-2-hexenal]	0 (200)	0 (200)	0 (200)	–	–	–	–
CCC/C=C/CO [trans-2-hexenol]	0 (200)	+1 (30-100)	+1 (30-100)	–	–	–	–
CC(=O)/C=C/C1C(C)=CCCC1(C)C (stereo not drawn) [α-ionone]	0 (200)	0 (200)	0 (200)	–	–	–	Mean number of D. barberi per day (±standard deviation) [9]: 0.3 ± 0.5^a per day; Mean number of D. cristata per day (±standard deviation) [10]: 2.8 ± 2.1^a per day; Mean number of D. v. virgifera per day (±standard deviation) [11]: 0.0^a per day; Mean number of D. u. howardi per day (±standard deviation) [12]: 0.0^a per day
